In US20100151004A1, “MODULATION OF DRUG SENSITIVITY” (UNIVERSITY OF MEDICINE AND DENTISTRY OF NEW JERSEY, priority 2007, published 2010):
“Also recorded” adds a separate entry of the source.

What was measured:
colorectal cancer = conditions: patients, typical clinical response; cited from earlier work
HCT-8/4hFU cells [1] = test: MTS cytotoxicity assay, continuous 5-FU exposure (4 days); format: cell-based, human
Protocol: Number of viable cells was determined by MTS assay.

HCT-8/4hFU tumor = test: Colorectal cancer xenograft model, tumor volume; format: in vivo, mice; conditions: for tumor response (tumor volume): one course, DAC 3×0.5 mg/kg i.p., 5-FU 1×50 mg/kg i.p.; for tumor response (tumor growth): two courses, DAC 3×0.5 mg/kg/course i.p., 5-FU 1×50 mg/kg/course i.p.
Protocol: (§1) Two independent experiments were performed and animals received either 1 or 2 courses of treatment (1 or 2 weeks) followed by an additional week of observation. […] Prior to the experiment tumors were grounded to a powder in LN2. Following the tumor harvest or if tumor diameter is greater than 1 cm, or greater than 15% weight loss occurred the animals were euthanized. All experiments were performed according to the protocol approved by The Institutional Animal Care and Use Committee at RWJMS. […] Gels were quantitated using ChemiDoc XRS machine and Quantity One 1-D analysis software (BioRad, Hercules, Calif., USA).

HCT-8/P tumor = test: Colorectal cancer xenograft model, tumor volume; format: in vivo, mice
Protocol: as §1

HCT-8/4hFU cells [2] = test: MTS cytotoxicity assay, 4 h bolus drug exposure; format: cell-based, human
Excerpt: Cancer Res 1992 Apr. […] Louis, Mo., USA).

[3] = tested on: UMPK expression in HCT-8/4hFU cells; test: UMPK mRNA (Q-RT-PCR) and protein (Western blotting) after DAC exposure in cultured cells; format: cell-based, human; conditions: low-dose DAC for 24 h
Protocol: (§2) Cells (1-5×10^6) were trypsinized, washed twice with PBS and kept frozen in −80° C. until used. Cell pellets or powdered tumors (vide infra) were thawed and resuspended in 0.5 ml of RIPA buffer (50 mM Tris-HCl buffer pH 7.4, 3 mM sodium fluoride and 4 mM DTT) supplemented with protease inhibitors. Samples were sonicated (2×20 s, 60% power) on ice and centrifuged for 20 min at 20,000 rpm. […] of lysate was loaded onto 10% SDS-PAGE gel and after transfer to nitrocellulose probed with anti-UMPK polyclonal antibody (1:1000) for 2 hours (gift of Dr Y. C. Cheng, Yale University) and secondary ant-rabbit antibody (1:5000) for 1 hour (Sigma St Louis, Mo., USA) or anti-α-tubulin (1:10000) for 1 hour (Sigma, St Louis, Mo., USA) and anti-mouse antibody (1:2000) for 0.5 h (Santa Cruz, Calif., USA) as a control.
(§3) Total RNA was extracted from 1-5×10^6 cells or powdered tumors using Trizol Reagent (Invitrogen, Carlsbad, Calif., USA) and run on 1% folmaldehyde-agarose gel to assess the quality of the RNA. […] Delta delta Ct method was used to calculate relative fold change in mRNA level (Livak K J, Schmittgen T D. Analysis of relative gene expression data using real-time quantitative PCR and the 2(−Delta Delta C(T)) Method. Methods 2001 December; 25(4):402-8). […]

HCT-8/P cells = test: MTS cytotoxicity assay, 4 h bolus drug exposure
[4] = tested on: UMPK expression in HCT-8/P cells; test: UMPK expression after DAC exposure in cultured cells; format: cell-based, human; conditions: low-dose DAC for 24 h
Protocol: as §2, §3

[5] = tested on: UMPK promoter and first exon CpG sites in HCT-8/4hFU cells; test: Pyro Q-CpG analysis of methylation; format: cell-based, human; conditions: HCT-8/4hFU + 0.5 μM DAC for 24 h
Protocol: DNA was extracted from tumors or cells using standard phenol-chlorophorm-isoamyl alcohol extraction (Invitrogen, Carlsbad, Calif., USA). 2 μg of sample DNA or 1 μg of control DNA was bisulfite modified using EZ DNA Methylation Kit (Zymo Research, Orange, Calif., USA). 1 ul out of 10 ul of post bisulfite modified DNA was used for PCR. Bisulfite treated fetal cell DNA and in vitro methylated human DNA (Chemicon, Millipore, Billerica, Mass.) were used in the assay development and PCR bias testing. The following reagents were mixed together in preparation for the Pyrosequencing reaction: Streptavidin beads 2 μl, 2× binding buffer 40 μl, PCR product 10 μl, water 28 μl. The assay was performed by EpigenDx (Worcester, Mass., USA) using PSQHS 96 System. Methylation of 42 CpG sites was analyzed.

[6] = tested on: UMPK mRNA in HCT-8/4hFU tumors; test: UMPK mRNA in xenograft tumors after DAC treatment (Q-RT-PCR); format: in vivo, mice
Protocol: (§4) Total RNA was extracted from 1-5×10^6 cells or powdered tumors using Trizol Reagent (Invitrogen, Carlsbad, Calif., USA) and run on 1% folmaldehyde-agarose gel to assess the quality of the RNA. Gene specific primers and fluorescent-labeled probe (FAM and TAMRA) were designed using Primer Express Software from ABI (Applied Biosystems, Foster City, Calif., USA). 50 ng of RNA was amplified in one-step RT-PCR reaction (Applied Biosystems, Foster City, Calif., USA) using TaqMan Real-Time PCR machine (7000 SDS). 18SrRNA (FAM) (Applied Biosystems, Foster City, Calif., USA) or β-actin (FAM-TAMRA) was used to normalize the results. Delta delta Ct method was used to calculate relative fold change in mRNA level (Livak K J, Schmittgen T D. Analysis of relative gene expression data using real-time quantitative PCR and the 2(−Delta Delta C(T)) Method. Methods 2001 December; 25(4):402-8). The sequence of UMPK forward primer is 5′-AAGAAGGAAAGATTGTACCAGTTGAGA-3′ (SEQ ID NO: 7), reverse primer 5′-GGAAACCCATCAATCAAGAATTTATT-3′ (SEQ ID NO: 8), and probe 5-FAM-AGAGGGAAATGGATCAGACAATGGCTGC-TAMRA-3′ (SEQ ID NO: 9).
(§5) HCT-8/P or HCT-8/4hFU cells (2.5×10^6) were injected subcutaneously into SKID nu/nu mice (Taconic, Germantown, N.Y., USA). When tumors were palpable animals were randomized into 4 groups (5-10 animals per group) and treated with DAC (Tuesday, Wednesday, Thursday, 0.5 mg/kg, i.p.), or 5-FU (Friday, 50 mg/kg, i.p.), or DAC & 5-FU, or PBS as a control. Measurements of tumor size and animal weight were performed every 3-4 days. Two independent experiments were performed and animals received either 1 or 2 courses of treatment (1 or 2 weeks) followed by an additional week of observation. In order to assay UMPK induction in tumors, animals from DAC alone, and DAC & 5-FU groups received additional course of DAC treatment towards the end of experiment. 24 hours after the third dose of DAC was administered animals were anesthetized, and tumors harvested, washed in PBS and flash frozen in LN2. Prior to the experiment tumors were grounded to a powder in LN2. Following the tumor harvest or if tumor diameter is greater than 1 cm, or greater than 15% weight loss occurred the animals were euthanized. All experiments were performed according to the protocol approved by The Institutional Animal Care and Use Committee at RWJMS.

UMPK in HCT-8/P tumors = test: as above; format: in vivo, mice; conditions: HCT-8/P group
Protocol: as §4, §5

[7] = one course, DAC 3×0.5 mg/kg i.p., 5-FU 1×50 mg/kg i.p.
[8] = two courses, DAC 3×0.5 mg/kg/course i.p., 5-FU 1×50 mg/kg/course i.p.
[9] = DAC 0.0005 μM-0.5 μM, 24 h exposure

## O=c1[nH]cc(F)c(=O)[nH]1 [5-FU, 5-Fluorouracil]
Colorectal cancer
  response rate: less than 30%
HCT-8/4hFU cells [1]
  sensitivity to continuous exposure to 5-FU, HCT-8/4hFU versus HCT-8/P: equally sensitive
HCT-8/4hFU tumor
  tumor response (tumor volume): resistant
  tumor response (tumor growth): partial response
HCT-8/P tumor; [7]
  tumor response (tumor growth): responded
HCT-8/P tumor; [8]
  tumor response (tumor growth): responded
HCT-8/4hFU cells [2]; bolus 4 h exposure, cell viability assay
  fold resistance to bolus 5-FU, HCT-8/4hFU versus HCT-8/P: 3-4 fold

## O=c1[nH]c(=O)n([C@@H]2O[C@H](CO)[C@@H](O)[C@H]2O)cc1F [5-FUR, 5-fluorouridine]
HCT-8/4hFU cells [2]; 5-FUR 4 h exposure
  increase in the IC50 value, HCT-8/4hFU as compared to HCT-8/P cells: ≤ 10 fold

## Nc1ncn([C@H]2C[C@H](O)[C@@H](CO)O2)c(=O)n1 [DAC, 5-Azadeoxycytidine]
[3]
  UMPK mRNA as well as protein levels: dose dependent increase
HCT-8/4hFU tumor
  tumor response (tumor volume): resistant
  tumor response (tumor growth): No significant response
HCT-8/P tumor; [7]
  tumor response (tumor growth): most significant delay in the tumor growth
HCT-8/P tumor; [8]
  tumor response (tumor growth): most significant effect
HCT-8/P cells; [9]
  cell kill: less than 20%
HCT-8/P cells; DAC 24 h pretreatment, then 5-FU or 5-FUR 4 h
  effect of DAC on sensitivity of HCT-8/P cells to 5-FU or 5-FUR: Much less of an effect; also recorded: do not show increased sensitivity
[4]
  UMPK expression: No increase
[5]
  Mean methylation across 36 CpG sites: 2.74
HCT-8/4hFU cells [2]; 0.02 μM DAC 24 h pretreatment
  restoration of sensitivity of HCT-8/4hFU cells to that seen in HCT-8/P cells: able to restore the sensitivity
HCT-8/4hFU cells [2]; [9]
  cell kill: less than 20%
HCT-8/4hFU cells [2]; DAC 24 h pretreatment, then 5-FU 4 h
  effect of DAC pretreatment on sensitivity to bolus 5-FU: makes HCT-8/4hFU cells sensitive
HCT-8/4hFU cells [2]; DAC 24 h pretreatment, then 5-FUR 4 h
  effect of DAC pretreatment on sensitivity to 5-FUR: makes HCT-8/4hFU cells sensitive
[6]; after one course of DAC (3×0.5 mg/kg)
  increase in UMPK mRNA as compared to untreated tumor: 4 fold
[6]; after two and three weeks of DAC treatment
  increase in UMPK mRNA as compared to untreated tumor: ≤ 20 fold
[6]; animals of the two-course experiment, relative to untreated HCT-8/4hFU tumors
  average increase of UMPK in tumors of the group of animals: 8.5 fold
UMPK in HCT-8/P tumors
  increase of UMPK after DAC treatment: No increase
